Test results as given in ChEMBL document CHEMBL1124865, “Synthesis and biological evaluation of a series of parenteral 3'-quaternary ammonium cephalosporins” (J Med Chem, 1990).
≈ marks a conversion by molar mass, not a printed value.

Key:
Type in all cases: functional
Enterobacter cloacae [1] = assay: Antibacterial activity against Enterobacter cloacae 265A
Pseudomonas aeruginosa [2] = assay: In vivo efficacy against Pseudomonas aeruginosa infected mice treated at 1 hr and 5 hr post infection
Staphylococcus aureus [3] = assay: In vivo efficacy against Staphylococcus aureus infected mice treated at 1 hr and 5 hr post infection
Escherichia coli [4] = assay: In vivo efficacy against Escherichia coli infected mice treated at 1 hr and 5 hr post infection
Pseudomonas aeruginosa [5] = assay: In vivo efficacy against Pseudomonas aeruginosa infections in mice
Staphylococcus aureus [6] = assay: In vivo efficacy against Staphylococcus aureus infections in mice
Pseudomonas aeruginosa [7] = assay: Antibacterial activity against Pseudomonas aeruginosa X528
Escherichia coli [8] = assay: Antibacterial activity against Escherichia coli EC14; conditions: Escherichia coli; read-out: MIC
Enterobacter cloacae [9] = assay: Antibacterial activity against Enterobacter cloacae EB5
Escherichia coli [10] = assay: Antibacterial activity against Escherichia coli TEM; conditions: Escherichia coli; read-out: MIC
Klebsiella pneumoniae [11] = assay: microbe, parasite or virus in culture
Description: Antibacterial activity against Klebsiella pneumoniae 1082E

Klebsiella pneumoniae [12] = assay: Antibacterial activity against Klebsiella pneumoniae X26; conditions: Klebsiella pneumoniae; read-out: MIC
Escherichia coli [13] = assay: In vivo efficacy against Escherichia coli infections in mice
Pseudomonas aeruginosa [14] = assay: Antibacterial activity against Pseudomonas aeruginosa PS18
Staphylococcus aureus [15] = assay: Antibacterial activity against penicillin G resistance Staphylococcus aureus
Staphylococcus aureus [16] = assay: Antibacterial activity against penicillin G susceptible Staphylococcus aureus
Streptococcus pneumoniae = assay: Antibacterial activity against Streptococcus pneumoniae
Serratia marcescens = assay: Antibacterial activity against Serratia marcescens SE3
Streptococcus pyogenes = assay: Antibacterial activity against Streptococcus pyogenes
Enterococcus faecium = assay: Antibacterial activity against Enterococcus faecium
[17] = Enterobacter cloacae, read-out: MIC
[18] = Klebsiella pneumoniae, read-out: MIC
[19] = Pseudomonas aeruginosa, read-out: ED50
[20] = Staphylococcus aureus, read-out: ED50
[21] = Escherichia coli, read-out: ED50
[22] = Escherichia coli, read-out: MIC
[23] = Pseudomonas aeruginosa, read-out: MIC
[24] = Staphylococcus aureus, read-out: MIC
[25] = Streptococcus pneumoniae, read-out: MIC
[26] = Serratia marcescens, read-out: MIC
[27] = Streptococcus pyogenes, read-out: MIC
[28] = Enterococcus faecium, read-out: MIC

## CO/N=C(\C(=O)N[C@@H]1C(=O)N2C(C(=O)[O-])=C(C[n+]3ccc(CC(=O)NO)cc3)CS[C@H]12)c1csc(N)n1 (stereo in doubt; 13)
Enterobacter cloacae [1]
  MIC: 128 µg/mL (≈ 234 µM)
Pseudomonas aeruginosa [2]
  ED50: 31 mg/kg
Staphylococcus aureus [3]
  ED50: >10 mg/kg
Escherichia coli [4]
  ED50: 0.05 mg/kg
Pseudomonas aeruginosa [5]
  MIC: 64 µg/mL (≈ 117 µM)
Staphylococcus aureus [6]
  MIC: 8 µg/mL (≈ 14.6 µM)
Pseudomonas aeruginosa [7]
  MIC: 16 µg/mL (≈ 29.2 µM)

## CO/N=C(\C(=O)N[C@@H]1C(=O)N2C(C(=O)[O-])=C(C[n+]3cccc4cc(O)ccc43)CS[C@H]12)c1csc(N)n1
Enterobacter cloacae [1]; [17]
  MIC: 16 µg/mL (≈ 29.6 µM)
Escherichia coli [8]
  MIC: 0.03 µg/mL (≈ 0.0555 µM)
Enterobacter cloacae [9]; [17]
  MIC: 0.5 µg/mL (≈ 0.925 µM)
Escherichia coli [10]
  MIC: 0.03 µg/mL (≈ 0.0555 µM)
Klebsiella pneumoniae [11]; [18]
  MIC: 4 µg/mL (≈ 7.4 µM)
Klebsiella pneumoniae [12]
  MIC: < 0.008 µg/mL
Pseudomonas aeruginosa [2]; [19]
  ED50: 29 mg/kg
Staphylococcus aureus [3]; [20]
  ED50: 1 mg/kg
Escherichia coli [4]; [21]
  ED50: 0.04 mg/kg
Escherichia coli [13]; [22]
  MIC: 0.03 µg/mL (≈ 0.0555 µM)
Pseudomonas aeruginosa [5]; [23]
  MIC: 8 µg/mL (≈ 14.8 µM)
Staphylococcus aureus [6]; [24]
  MIC: 1 µg/mL (≈ 1.85 µM)
Pseudomonas aeruginosa [7]; [23]
  MIC: 8 µg/mL (≈ 14.8 µM)
Pseudomonas aeruginosa [14]; [23]
  MIC: 8 µg/mL (≈ 14.8 µM)
Staphylococcus aureus [15]; [24]
  MIC: 2 µg/mL (≈ 3.7 µM)
Staphylococcus aureus [16]; [24]
  MIC: 1 µg/mL (≈ 1.85 µM)
Streptococcus pneumoniae; [25]
  MIC: < 0.008 µg/mL
Serratia marcescens; [26]
  MIC: 0.5 µg/mL (≈ 0.925 µM)
Streptococcus pyogenes; [27]
  MIC: < 0.008 µg/mL
Enterococcus faecium; [28]
  MIC: 128 µg/mL (≈ 237 µM)

## CO/N=C(\C(=O)N[C@@H]1C(=O)N2C(C(=O)[O-])=C(C[n+]3cccc4ccc(O)cc43)CS[C@H]12)c1csc(N)n1
Enterobacter cloacae [1]; [17]
  MIC: 8 µg/mL (≈ 14.8 µM)
Escherichia coli [8]
  MIC: 0.06 µg/mL (≈ 0.111 µM)
Enterobacter cloacae [9]; [17]
  MIC: 0.25 µg/mL (≈ 0.462 µM)
Escherichia coli [10]
  MIC: 0.125 µg/mL (≈ 0.231 µM)
Klebsiella pneumoniae [11]; [18]
  MIC: 4 µg/mL (≈ 7.4 µM)
Klebsiella pneumoniae [12]
  MIC: 0.03 µg/mL (≈ 0.0555 µM)
Pseudomonas aeruginosa [2]; [19]
  ED50: > 50 mg/kg
Staphylococcus aureus [3]; [20]
  ED50: 4 mg/kg
Escherichia coli [4]; [21]
  ED50: 0.05 mg/kg
Escherichia coli [13]; [22]
  MIC: 0.06 µg/mL (≈ 0.111 µM)
Pseudomonas aeruginosa [5]; [23]
  MIC: 16 µg/mL (≈ 29.6 µM)
Staphylococcus aureus [6]; [24]
  MIC: 4 µg/mL (≈ 7.4 µM)
Pseudomonas aeruginosa [7]; [23]
  MIC: 16 µg/mL (≈ 29.6 µM)
Pseudomonas aeruginosa [14]; [23]
  MIC: 32 µg/mL (≈ 59.2 µM)
Staphylococcus aureus [15]; [24]
  MIC: 8 µg/mL (≈ 14.8 µM)
Staphylococcus aureus [16]; [24]
  MIC: 4 µg/mL (≈ 7.4 µM)
Streptococcus pneumoniae; [25]
  MIC: 0.06 µg/mL (≈ 0.111 µM)
Serratia marcescens; [26]
  MIC: 0.5 µg/mL (≈ 0.925 µM)
Streptococcus pyogenes; [27]
  MIC: 0.03 µg/mL (≈ 0.0555 µM)
Enterococcus faecium; [28]
  MIC: > 128 µg/mL

## CO/N=C(\C(=O)N[C@@H]1C(=O)N2C(C(=O)[O-])=C(C[n+]3ccc(CC(=O)NO)cc3)CS[C@H]12)c1csc(N)n1 (stereo in doubt; 21)
Enterobacter cloacae [1]
  MIC: 16 µg/mL (≈ 29.2 µM)
Enterobacter cloacae [9]
  MIC: 0.125 µg/mL (≈ 0.228 µM)
Staphylococcus aureus [3]
  ED50: 3.3 mg/kg
Escherichia coli [4]
  ED50: 0.07 mg/kg
Staphylococcus aureus [6]
  MIC: 2 µg/mL (≈ 3.65 µM)
Pseudomonas aeruginosa [7]
  MIC: 1 µg/mL (≈ 1.83 µM)
Serratia marcescens
  MIC: 0.06 µg/mL (≈ 0.11 µM)
Streptococcus pyogenes
  MIC: 0.015 µg/mL (≈ 0.0274 µM)

## CO/N=C(\C(=O)N[C@@H]1C(=O)N2C(C(=O)[O-])=C(C[n+]3ccc(CC(=O)NO)cc3)CS[C@H]12)c1csc(N)n1 (stereo in doubt; 7)
Pseudomonas aeruginosa [2]
  ED50: 19.6 mg/kg
Staphylococcus aureus [3]
  ED50: 1.5 mg/kg
Escherichia coli [4]
  ED50: 0.04 mg/kg
Streptococcus pneumoniae
  MIC: 0.015 µg/mL (≈ 0.0274 µM)

## CO/N=C(\C(=O)N[C@@H]1C(=O)N2C(C(=O)[O-])=C(C[n+]3ccc(CC(=O)NO)cc3)CS[C@H]12)c1csc(N)n1 (stereo in doubt; 20)
Enterobacter cloacae [1]
  MIC: 64 µg/mL (≈ 117 µM)
Klebsiella pneumoniae [11]
  MIC: 8 µg/mL (≈ 14.6 µM)
Pseudomonas aeruginosa [2]
  ED50: 20 mg/kg
Staphylococcus aureus [3]
  ED50: 1.4 mg/kg
Escherichia coli [4]
  ED50: <0.03 mg/kg
Escherichia coli [13]
  MIC: 0.06 µg/mL (≈ 0.11 µM)
Pseudomonas aeruginosa [5]
  MIC: 8 µg/mL (≈ 14.6 µM)
Pseudomonas aeruginosa [14]
  MIC: 16 µg/mL (≈ 29.2 µM)
Staphylococcus aureus [15]
  MIC: 16 µg/mL (≈ 29.2 µM)
Staphylococcus aureus [16]
  MIC: 8 µg/mL (≈ 14.6 µM)
Streptococcus pneumoniae
  MIC: 0.06 µg/mL (≈ 0.11 µM)
Serratia marcescens
  MIC: 0.25 µg/mL (≈ 0.457 µM)
Streptococcus pyogenes
  MIC: 0.06 µg/mL (≈ 0.11 µM)
Enterococcus faecium
  MIC: >128 µg/mL

## CO/N=C(\C(=O)N[C@@H]1C(=O)N2C(C(=O)[O-])=C(C[n+]3csc(CCOC=O)c3C)CS[C@H]12)c1csc(N)n1
Enterobacter cloacae [1]; [17]
  MIC: 2 µg/mL (≈ 3.53 µM)
Escherichia coli [8]
  MIC: 0.03 µg/mL (≈ 0.0529 µM)
Enterobacter cloacae [9]; [17]
  MIC: 0.06 µg/mL (≈ 0.106 µM)
Escherichia coli [10]
  MIC: 0.03 µg/mL (≈ 0.0529 µM)
Klebsiella pneumoniae [11]; [18]
  MIC: 4 µg/mL (≈ 7.06 µM)
Klebsiella pneumoniae [12]
  MIC: 0.015 µg/mL (≈ 0.0265 µM)
Pseudomonas aeruginosa [7]; [23]
  MIC: 8 µg/mL (≈ 14.1 µM)
Pseudomonas aeruginosa [14]; [23]
  MIC: 16 µg/mL (≈ 28.2 µM)
Staphylococcus aureus [15]; [24]
  MIC: 2 µg/mL (≈ 3.53 µM)
Staphylococcus aureus [16]; [24]
  MIC: 1 µg/mL (≈ 1.76 µM)
Streptococcus pneumoniae; [25]
  MIC: 0.015 µg/mL (≈ 0.0265 µM)
Serratia marcescens; [26]
  MIC: 0.06 µg/mL (≈ 0.106 µM)
Streptococcus pyogenes; [27]
  MIC: 0.015 µg/mL (≈ 0.0265 µM)
Enterococcus faecium; [28]
  MIC: 16 µg/mL (≈ 28.2 µM)

## CO/N=C(\C(=O)N[C@@H]1C(=O)N2C(C(=O)[O-])=C(C[n+]3csc4c3CCCC4)CS[C@H]12)c1csc(N)n1
Enterobacter cloacae [1]; [17]
  MIC: 1 µg/mL (≈ 1.87 µM)
Escherichia coli [8]
  MIC: 0.06 µg/mL (≈ 0.112 µM)
Enterobacter cloacae [9]; [17]
  MIC: 0.125 µg/mL (≈ 0.234 µM)
Escherichia coli [10]
  MIC: 0.03 µg/mL (≈ 0.0561 µM)
Klebsiella pneumoniae [11]; [18]
  MIC: 2 µg/mL (≈ 3.74 µM)
Klebsiella pneumoniae [12]
  MIC: 0.03 µg/mL (≈ 0.0561 µM)
Pseudomonas aeruginosa [7]; [23]
  MIC: 4 µg/mL (≈ 7.48 µM)
Pseudomonas aeruginosa [14]; [23]
  MIC: 16 µg/mL (≈ 29.9 µM)
Staphylococcus aureus [15]; [24]
  MIC: 2 µg/mL (≈ 3.74 µM)
Staphylococcus aureus [16]; [24]
  MIC: 1 µg/mL (≈ 1.87 µM)
Streptococcus pneumoniae; [25]
  MIC: 0.03 µg/mL (≈ 0.0561 µM)
Serratia marcescens; [26]
  MIC: 0.125 µg/mL (≈ 0.234 µM)
Streptococcus pyogenes; [27]
  MIC: 0.03 µg/mL (≈ 0.0561 µM)
Enterococcus faecium; [28]
  MIC: 16 µg/mL (≈ 29.9 µM)

## CO/N=C(\C(=O)N[C@@H]1C(=O)N2C(C(=O)[O-])=C(C[n+]3csc4c3CCC4)CS[C@H]12)c1csc(N)n1
Enterobacter cloacae [1]; [17]
  MIC: 4 µg/mL (≈ 7.68 µM)
Escherichia coli [8]
  MIC: 0.06 µg/mL (≈ 0.115 µM)
Enterobacter cloacae [9]; [17]
  MIC: 0.25 µg/mL (≈ 0.48 µM)
Escherichia coli [10]
  MIC: 0.06 µg/mL (≈ 0.115 µM)
Klebsiella pneumoniae [11]; [18]
  MIC: 4 µg/mL (≈ 7.68 µM)
Klebsiella pneumoniae [12]
  MIC: 0.06 µg/mL (≈ 0.115 µM)
Pseudomonas aeruginosa [7]; [23]
  MIC: 8 µg/mL (≈ 15.4 µM)
Pseudomonas aeruginosa [14]; [23]
  MIC: 32 µg/mL (≈ 61.5 µM)
Staphylococcus aureus [15]; [24]
  MIC: 4 µg/mL (≈ 7.68 µM)
Staphylococcus aureus [16]; [24]
  MIC: 2 µg/mL (≈ 3.84 µM)
Streptococcus pneumoniae; [25]
  MIC: 0.06 µg/mL (≈ 0.115 µM)
Serratia marcescens; [26]
  MIC: 0.125 µg/mL (≈ 0.24 µM)
Streptococcus pyogenes; [27]
  MIC: 0.06 µg/mL (≈ 0.115 µM)
Enterococcus faecium; [28]
  MIC: 32 µg/mL (≈ 61.5 µM)
